Data from article PMC10970924 (Life, 2024).
Like-named read-outs stand apart in the source and are kept apart here.

How the values were obtained:
PC-3 cells = settings: for Olive Moment / Tail Area / Tail DNA % / Tail Intensity / Tail Length / Tail Moment: 3 days; for DNA breaks in the Comet assay (in words): PC-3, 72 h
Experimental: PC-3 and MCF-7 cells were seeded into 6-well plates at a concentration of 15,000 cells/mL. […] Cells were trypsinized and washed, then placed in 0.7% low melting point agarose and mounted on glass slides (200 000 cells/sample). Slides were treated with lysis solution (2.5 M NaCl, 0.1 M disodium EDTA, 1% Triton X-100, 10 mM Tris base, 10% DMSO, pH 10) for 1 h at 4 °C. Next, the samples were placed in an alkaline solution (12 g of NaOH brought to 1 L with water, disodium EDTA 0.2 M, pH >13) and incubated for 30 min at room temperature. Afterward, the slides were washed with electrophoresis 1X TBE buffer (10X TBE: 9.3 g disodium salt EDTA, 108 g Tris base, and 55 g boric acid per 1 L of water) twice and placed in the electrophoresis chamber. Electrophoresis was carried out under neutral conditions in 1X TBE buffer for 30 min at 31 V (at the rate of 1 V/cm). Afterward, the slides were washed in PBS (Ca free, Mg free) 2 times for 5 min, fixed in 96% ethanol for 5 min, and dried. Before analysis, 50 μL of SYBR Green solution (1μL stock + 10 mL TE buffer) was applied to the slides. Using an Observer Z1 fluorescent optical microscope (Carl Zeiss, Jena, Germany), photographs of cells were taken and analyzed in the ImageJ program (Plugin OpenComet).
“Tail moment” (TM) and “Olive moment” (OTM) were calculated using the following formula:(1) TM=(Fluor in tail/Fluor total )×tail lenght (2) OTM=(Tail mean−Head mean)×(Tail DNA %)/100.

MTS cytotoxicity assay [1] = settings: human
From the text: (§1) The study utilized human cell lines including PC-3 (human prostate adenocarcinoma), HSF (primary human skin fibroblasts), MDA-MB-231 (estrogen-negative breast adenocarcinoma), MCF-7 (estrogen-positive breast adenocarcinoma), MSC (multipotent stem cells derived from adipose tissue), SF-539 (brain gliosarcoma), SNB-19 (glioblastoma), A-498 (kidney carcinoma), M-14 (human melanoma), NCI-H322-M (primary bronchioalveolar carcinoma), HCT-15 (colon adenocarcinoma), and HCT-116 (colorectal intestinal carcinoma). We also used immortalized C2C12 mouse myoblasts (ATCC—CRL-1772). Cancer cell lines were obtained from the ATCC collection and generously provided by the Fox Chase Cancer Center (Philadelphia, USA). Conditionally normal cells, including skin fibroblasts and multipotent stem cells, were isolated by our group from postoperative materials (skin and subcutaneous fat) obtained from a conditionally healthy donor. Reagents and consumables for cell culture work were purchased from PanEco (Russia).
The cytotoxicity of the compounds under study was assessed using MTS assay on cell cultures. Cells were seeded into 96-well plates at a concentration of 10,000–20,000 cells/mL. […] After 2 h of incubation, the resulting water-soluble formazan was measured using the TECAN Infinite M200 Pro microplate reader at wavelengths of 555/750 nm. […]

HCT-116 [2] = experiment: Mitochondrial membrane potential, rhodamine 123 flow cytometry; assay type: cell-based, human; settings: tumor cells (HCT-116 in Figure 4a), 72 h, IC50 or higher
Experimental: Cells were seeded in a 12-well plate at a density of 1 × 10^5 cells/well and incubated for 24 h at 37 °C in a humid atmosphere with 5% CO2 prior to treatment. Cells were bathed in complete DMEM media containing the respective compounds, using a solvent (dH2O/DMSO) as a negative control. After 72 h, the nutrient medium over cells containing the floating cells was collected into tubes, and then the adherent cells were trypsinized and added to the fraction of floating cells. Cell suspensions were then centrifuged, and the pellet was suspended in phosphate-buffered saline (PBS) to a final density of 5 × 10^5 cells/mL. Cell suspension in a volume of 250 μL and 500 nM rhodamine 123 were added to a rounded-well plate, followed by incubation for 30 min at 25° C. Measurements were conducted using flow cytometry on the Millipore Guava EasyCyte HT Flow Cytometer System in a green fluorescent channel.

NCI-H322M = experiment: MTS cytotoxicity assay; settings: Homo sapiens, 72 h, read-out: Cytotoxic concentration IC50, NCI-H322M
From the text: as §1
(§2) The cytotoxicity of the compounds under study was assessed using MTS assay on cell cultures. Cells were seeded into 96-well plates at a concentration of 10,000–20,000 cells/mL. After 24 h, gradient concentrations of the compounds were added to the culture medium and the plates were incubated for 72 h. Subsequently, the culture medium was replaced with MTS reagents (Sigma-Aldrich, Burlington, MA, USA) (MTS:PMS (0.18:0.0092 mg/mL)) and dissolved in phenol-free RPMI 1640 medium. After 2 h of incubation, the resulting water-soluble formazan was measured using the TECAN Infinite M200 Pro microplate reader at wavelengths of 555/750 nm. As a control, equivalent volumes of the solvents in which each compound was dissolved (dH2O/DMSO) were used. To calculate the percentage of viable cells relative to the control, which was considered 100%, dose-response curves were plotted against the logarithm of the compound concentration. The concentration of the compound at which cell growth is inhibited by 50% relative to the control was taken as the inhibitory concentration IC50 and calculated using Origin Pro software 8.0.1. The study was conducted in triplicates and in three independent repetitions.

PC-3 = experiment: MTS cytotoxicity assay; settings: for IC50: Homo sapiens; for Selectivity index IC50 HSF/IC50 PC-3: MTS assay, from the mean IC50 value for HSF cells
From the text: as §1, §2

SF-539 = experiment: MTS cytotoxicity assay; settings: Homo sapiens, SF-539, 72 h, read-out: Cytotoxic concentration IC50, SF-539
From the text: as §1, §2

SNB-19 = experiment: MTS cytotoxicity assay; settings: Homo sapiens, SNB-19, 72 h, read-out: Cytotoxic concentration IC50, SNB-19
From the text: as §1, §2

[3] = test system: C2C12 (immortalized mouse myoblasts); experiment: MTS cytotoxicity assay; settings: for Inhibition of C2C12 cell proliferation: MTS assay, sufficiently high concentrations
From the text: as §1, §2

MDA-MB-231 = experiment: MTS cytotoxicity assay; settings: Homo sapiens, MDA-MB-231, 72 h, read-out: Cytotoxic concentration IC50, MDA-MB-231
From the text: as §1, §2

A-498 = experiment: MTS cytotoxicity assay; settings: Homo sapiens, A498, 72 h, read-out: Cytotoxic concentration IC50, A-498
From the text: as §1, §2

M14 = experiment: MTS cytotoxicity assay; settings: Homo sapiens, M14, 72 h, read-out: Cytotoxic concentration IC50, M14
From the text: as §1, §2

MTS cytotoxicity assay [4] = experiment: MTS cytotoxicity assay
From the text: as §1, §2

HCT-116 [5] = experiment: MTS cytotoxicity assay; settings: for IC50: Homo sapiens; for IC25, HCT-116 / IC75, HCT-116: test concentration selected based on MTS data; for Times reduced cytotoxicity compared to doxorubicin, HCT-116 / Selectivity index IC50 HSF/IC50 HCT-116: MTS assay; for Selectivity index IC50 HSF/IC50 HCT-116: from the mean IC50 value for HSF cells
From the text: as §1, §2

MCF-7 = experiment: MTS cytotoxicity assay; settings: for IC50: Homo sapiens; for Selectivity index IC50 HSF/IC50 MCF-7: from the mean IC50 value for HSF cells
From the text: as §1, §2

[6] = PC-3, 72 h, read-out: Cytotoxic concentration IC50, PC-3
[7] = HCT-116, 72 h, read-out: Cytotoxic concentration IC50, HCT-116
[8] = HCT-116, read-out: IC50, HCT-116
[9] = MCF7, 72 h, read-out: Cytotoxic concentration IC50, MCF-7
[10] = test concentration selected based on MTS data

COc1cccc2c1C(=O)c1c(O)c3c(c(O)c1C2=O)C[C@@](O)(C(=O)CO)C[C@@H]3O[C@H]1C[C@H](N)[C@H](O)[C@H](C)O1 [DOX, Doxorubicin, reference compound]
Olive Moment (PC-3 cells; PC-3, 0.5 µM (IC25)): 8.13 | Tail Area (PC-3 cells; PC-3, 0.5 µM (IC25)): 2215 | Tail DNA % (PC-3 cells; PC-3, 0.5 µM (IC25)): 22.7% | Tail Intensity (PC-3 cells; PC-3, 0.5 µM (IC25)): 66 | Tail Length (PC-3 cells; PC-3, 0.5 µM (IC25)): 51 | Olive Moment (PC-3 cells; PC-3, 1.1 µM (IC50)): 11.64 | Tail Area (PC-3 cells; PC-3, 1.1 µM (IC50)): 1902 | Tail DNA % (PC-3 cells; PC-3, 1.1 µM (IC50)): 35.2% | Tail Intensity (PC-3 cells; PC-3, 1.1 µM (IC50)): 74 | Tail Length (PC-3 cells; PC-3, 1.1 µM (IC50)): 51 | DNA breaks in the Comet assay (in words) (PC-3 cells): induces DNA breaks | IC50 at 72 h (MTS cytotoxicity assay [1]; MSC multipotent stem cells derived from adipose tissue): 1100 ± 650 nM | Effect on mitochondrial potential ΔΨ (in words) (HCT-116 [2]): significant number of cells with reduced mitochondrial potential | IC50 (NCI-H322M): 2460 ± 1180 nM | IC50 (PC-3; [6]): 1050 ± 620 nM | IC50 (PC-3; PC-3, read-out: IC50, PC-3): 1100 nM | IC50 (SF-539): 530 ± 350 nM | IC50 (SNB-19): 100 ± 40 nM | Inhibition of C2C12 cell proliferation [3]: ≥ 95% | IC50 (MDA-MB-231): 730 ± 250 nM | IC50 (A-498): 350 ± 60 nM | IC50 (M14): 160 ± 20 nM | IC50 at 72 h (MTS cytotoxicity assay [4]; human, HSF primary skin fibroblasts): 1120 ± 660 nM | IC50 at 72 h (MTS cytotoxicity assay [4]; mouse, C2C12 immortalized myoblasts): 45 ± 4 nM | IC50 (HCT-116 [5]; [7]): 1100 ± 640 nM | IC50 (HCT-116 [5]; [8]): 1000 nM | IC25, HCT-116 (HCT-116 [5]): 250 nM | IC75, HCT-116 (HCT-116 [5]): 2500 nM | IC50 (MCF-7; [9]): 90 ± 50 nM | IC50 (MCF-7; MCF7, read-out: IC50, MCF-7): 50 nM | IC10, MCF-7 (MCF-7; [10]): 10 nM | IC25, MCF-7 (MCF-7; [10]): 20 nM | IC70, MCF-7 (MCF-7; [10]): 200 nM

COc1cccc2c1C(=O)c1c(O)c3c(c(O)c1C2=O)CC(O)(C(=O)CO)CC3OC1CC(NC(=O)c2cnc(C)c3c2COC(C)(C)O3)C(O)C(C)O1 (centres unmarked) [DOX-1, N-(3-hydroxy-2-methyl-6-((3,5,12-trihydroxy-3-(2-hydroxyacetyl)-10-methoxy-6,11-dioxo-1,2,3,4,6,11-hexahydrotetracen-1-yl)oxy)tetrahydro-2H-pyran-4-yl)-2,2,8-trimethyl-4H-[1,3]dioxino[4,5-c]pyridine-5-carboxamide]
Olive Moment (PC-3 cells; PC-3, 3 µM (IC25)): 2.48 | Tail Area (PC-3 cells; PC-3, 3 µM (IC25)): 1094 | Tail DNA % (PC-3 cells; PC-3, 3 µM (IC25)): 6.7% | Tail Intensity (PC-3 cells; PC-3, 3 µM (IC25)): 34 | Tail Length (PC-3 cells; PC-3, 3 µM (IC25)): 10 | Tail Moment (PC-3 cells; PC-3, 3 µM (IC25)): 1.07 | Olive Moment (PC-3 cells; PC-3, 6.1 µM (IC50)): 2.24 | Tail Area (PC-3 cells; PC-3, 6.1 µM (IC50)): 1196 | Tail DNA % (PC-3 cells; PC-3, 6.1 µM (IC50)): 6.7% | Tail Intensity (PC-3 cells; PC-3, 6.1 µM (IC50)): 30 | Tail Length (PC-3 cells; PC-3, 6.1 µM (IC50)): 17 | Tail Moment (PC-3 cells; PC-3, 6.1 µM (IC50)): 1.36 | Olive Moment (PC-3 cells; PC-3, 11.3 µM (IC70)): 3.79 | Tail Area (PC-3 cells; PC-3, 11.3 µM (IC70)): 1403 | Tail DNA % (PC-3 cells; PC-3, 11.3 µM (IC70)): 11.4% | Tail Intensity (PC-3 cells; PC-3, 11.3 µM (IC70)): 37 | Tail Length (PC-3 cells; PC-3, 11.3 µM (IC70)): 12 | Tail Moment (PC-3 cells; PC-3, 11.3 µM (IC70)): 1.87 | DNA breaks in the Comet assay (in words) (PC-3 cells): do not cause DNA breaks | Effect on mitochondrial potential ΔΨ (in words) (HCT-116 [2]): significant number of cells with reduced mitochondrial potential | melting point: 165 to 167 °C (dec.) | IC50 (NCI-H322M): 7200 ± 4760 nM | IC50 (PC-3; [6]): 5410 ± 880 nM | IC50 (PC-3; PC-3, read-out: IC50, PC-3): 6100 nM | Selectivity index IC50 HSF/IC50 PC-3 (PC-3): 1.12 ± 0.24 | IC25, PC-3 (PC-3; concentration and corresponding IC used in the Comet assay): 3 µM (IC25) | IC50 (SF-539): 2060 ± 180 nM | IC50 (SNB-19): 5080 ± 3400 nM | Inhibition of C2C12 cell proliferation [3]: ≥ 95% | IC50 (MDA-MB-231): 4050 ± 960 nM | IC50 (A-498): 4460 ± 3190 nM | IC50 (M14): 4290 ± 1560 nM | IC50 at 72 h (MTS cytotoxicity assay [4]; mouse): 230 ± 160 nM | IC50 (HCT-116 [5]; [7]): 4630 ± 550 nM | IC50 (HCT-116 [5]; [8]): 4000 nM | Times reduced cytotoxicity compared to doxorubicin, HCT-116 (HCT-116 [5]): 4.2 | Selectivity index IC50 HSF/IC50 HCT-116 (HCT-116 [5]): 1.28 ± 0.18 | IC25, HCT-116 (HCT-116 [5]): 1700 nM | IC75, HCT-116 (HCT-116 [5]): 9000 nM | IC50 (MCF-7; [9]): 1880 ± 480 nM | Times less potent than unmodified doxorubicin, MCF-7 (MCF-7; MTS assay): 20.9 | Selectivity index IC50 HSF/IC50 MCF-7 (MCF-7; MTS assay): 3.32 ± 0.87

COc1cccc2c1C(=O)c1c(O)c3c(c(O)c1C2=O)CC(O)(C(=O)CO)CC3OC1CC(NC(=O)/C=C/c2cnc(C)c3c2COC(C)(C)O3)C(O)C(C)O1 (centres unmarked) [DOX-2, (E)-N-(3-hydroxy-2-methyl-6-((3,5,12-trihydroxy-3-(2-hydroxyacetyl)-10-methoxy-6,11-dioxo-1,2,3,4,6,11-hexahydrotetracen-1-yl)oxy)tetrahydro-2H-pyran-4-yl)-3-(2,2,8-trimethyl-4H-[1,3]dioxino[4,5-c]pyridin-5-yl)acrylamide]
IC50 at 72 h (MTS cytotoxicity assay [1]): > 200000 nM | melting point: 175 to 176 °C (dec.) | IC50 (NCI-H322M): > 200000 nM | IC50 (PC-3; [6]): 1970 ± 310 nM | Selectivity index IC50 HSF/IC50 PC-3 (PC-3): >100 | IC50 (SF-539): 1740 ± 110 nM | IC50 (SNB-19): 870 ± 100 nM | inhibition at 200 µM ([3]; Mus musculus, C2C12, read-out: Inhibition of C2C12): ≤ 60% | IC50 (MDA-MB-231): 1580 ± 1030 nM | IC50 (A-498): 41700 ± 7420 nM | IC50 (M14): 2610 ± 240 nM | IC50 at 72 h (MTS cytotoxicity assay [4]; human): > 200000 nM | IC50 at 72 h (MTS cytotoxicity assay [4]; mouse): 2800 ± 1710 nM | IC50 (HCT-116 [5]; [7]): 1430 ± 290 nM | Times reduced cytotoxicity compared to doxorubicin, HCT-116 (HCT-116 [5]): 1.3 | Selectivity index IC50 HSF/IC50 HCT-116 (HCT-116 [5]): >140 | IC50 (MCF-7; [9]): 770 ± 150 nM | Selectivity index for MCF-7, times greater than that of doxorubicin (MCF-7; MTS assay): 15 | Times less potent than unmodified doxorubicin, MCF-7 (MCF-7; MTS assay): 8.5 | Selectivity index IC50 HSF/IC50 MCF-7 (MCF-7; MTS assay): >260
